For data set [1], the system named is C8161 aggressive melanoma cells. The data set can be described thus: VM network formation in three-dimensional MATRIGEL, C8161 cells. Type of data set: cell-based, human. Particulars: for VM network formation: all tested concentrations. As for the experimental part:
(§1) Aggressive human melanoma (C8161 or SK-MEL28; 1×10^5) cells were seeded into a three-dimensional polymerized MATRIGEL™ (75 μl) for VM network analysis. C8161 or SK-MEL28 cells were treated for 24 h with 0.5, 1, 5, 10, 25 or 50 or 100 nM of TRX-818 at 5 or 24 h after cell attachment. Another set of melanoma cells were seeded onto a plastic dish and treated for the same amount of time before the cell viability of C8161 or SK-MEL28 cells was determined using the Guava Nexin Assay (Millipore, USA).
The VM network image was taken using a confocal laser scanning microscope equipped with an environmental, chamber to track the response of cancer cells to the test compound. The images were then digitized and subsequently analyzed using the Angiosys software. Four images per sample were analyzed to quantify the number of junctions and total tubule length of VM formation. Changes were presented in percentage relative to the vehicle control. Sterile deionized water (tissue-culture grade) was used as the vehicle control.
(§2) Aggressive human melanoma (C8161, 7.5×10^4) cells were seeded as disclosed in Example 1. C8161 cells were treated tor 4 h or 24 h with 0.3, 1 or 5 nM of TRX-818M1. Another set of melanoma cells were seeded onto a plastic dish and treated for the same amount of time before the cell viability of C8161 cells was determined.

In data set [2] the test system is SK-MEL-28 aggressive human melanoma cells. The data set can be described thus: Loss of pre-formed VM network in SK-MEL-28 cells on MATRIGEL
Particulars: 100 nM. The format is cell-based. As for the experimental part:
TRX-818 M1 (i.e., compound No. 38) structurally similar compounds were tested for their effect on inhibition of vasculogenic mimicry. Aggressive human melanoma (SK-MEL-28 from ATCC®; 7.5×10^4 mL medium) cells were seeded onto a three-dimensional polymerized MATRIGEL™-coated 24-well plate. After 18 h of cell seeding, VM network was formed. The medium was then replaced with negative controls (untreated and DMSO treated controls), a positive control (100 nM of TRX-818M1) or 100 nM of each testing compound.

The test system of data set [3] is HCT-116 orthotopic human colon cancer xenograft. The data set can be described thus: HCT-116 orthotopic human colon cancer xenograft model. The format is in vivo, mice. Particulars: 50 mg/kg Q4D×3, i.p. As for the experimental part: The inhibitory effect of TRX-818 on tumor growth and VM formation of HCT-116, a highly metastatic colon tumor, was examined in a HCT-116 orthotopic xenograft model. The effect of TRX-818 was evaluated on the formation of the vascular or vascular-like (vasculogenic mimicry, VM) network by immunohistochemistry staining (IHC) in orthotopic xenograft human colon cancer model inoculated with HCT116 colon cancer cell lines
Six groups were set in this study (ten mice/group). There were: Group 1, TRX-818 at 20 mg/kg given as oral administration; Group 2, TRX-818 at 50 mg/kg given as oral administration; Group 3, TRX-818 at 100 mg/kg given as oral administration; Group 4, TRX-818 at 20 mg/kg given as intravenous injection; Group 5, Irinotecan at 50 mg/kg given as intraperitoneal injection; Group 6, vehicle group. Dose schedule for G1, G2, G3 and G6 was QD×28 and for G4 was QOD×7. Body weights were monitored for safety evaluation. Tumor size and tumor weight were measured at the end of in-life study. The percentage of tumor growth inhibition (TGI %) was calculated at the termination of the study for anti-tumor effect evaluation. The average body weight of study mice on Day 1 was ˜20 gram and decreased to ˜17-19 gram at the end of study (Day 42)
At the end of 28-day dosing, CO2 anesthesia (1 min) followed by cervical dislocation was used for mice euthanasia in the study prior to tumors and lungs excision. First, a ventral midline incision was made and colon with primary tumor was excised and collected. The tumor collection was completed in 3 minutes after euthanasia. The tissues were rinsed with PBS to remove the blood before fixation.
The number of channels with CD31^+/red blood cell (RBC)^+ or CD31^−/RBC^+ were counted on the whole section of each sample in each group, and the number of vessels with CD31 positive or negative staining were counted based on 5 light fields (200×) under microscope. The vascular network represented by the CD31^+/RBC^+ staining whereas the VM network represented by CD31^−/RBC^+ staining, because the VM formation is independent of vascular endothelial cells. The scoring was conducted by blinded, objective observer.

For a further data set, the system named is C8161 cells. The data set can be described thus: Cell viability of C8161 cells (Guava Nexin Assay). Particulars: higher concentrations in the nM range. Type of data set: cell-based. As for the experimental part: as §1, §2

The results in this text go back to patent publication US9717721B2, “Use of aryl-quinolin derivatives as inhibitors of vasculogenic mimicry” (TaiRx Inc., priority 2015, dated 2017).

The structures appear in SMILES notation.

Take `O=c1cc(-c2ccccc2F)[nH]c2cc3c(cc12)OCO3` [CHM-2133, 2-(2-fluorophenyl)-6,7-methylenedioxyquinolin-4-one]: in data set [1], the “concentration effective as vascular disrupting agent” value was roughly 0.3 nM and the VM network formation entry is listed as “inhibited”.

`COc1cc2c(cc1O)N=C(c1ccccc1F)CC2=O` [Compound 43, 2-(2-Fluorophenyl)-7-hydroxy-6-methoxyquinolin-4-one]: the “loss of VM network compared to negative controls” value is given as “mild loss of VM network” in data set [2] (5 h post treatment) and “marked loss of VM network” in data set [2] (24 h post treatment).

On to `COc1ccc2[nH]c(-c3cccc(F)c3)cc(=O)c2c1OP(=O)(O)O` [Compound 52, 2-(3-Fluorophenyl)-6-methoxy-4-oxo-1,4-dihydroquinolin-5-yl dihydrogen phosphate], for which the “loss of VM network compared to negative controls” value in data set [2] (5 h post treatment) is on record as “mild loss of VM network”; in data set [2] (24 h post treatment), “marked loss of VM network”.

On to `O=c1cc(-c2cccc(OP(=O)(O)O)c2)[nH]c2ccc(N3CCCC3)cc12` [Compound 147, 3-(4-Oxo-6-(pyrrolidin-1-yl)-1,4-dihydroquinolin-2-yl)phenyl dihydrogen phosphate], for which the “loss of VM network compared to negative controls” value was “mild loss of VM network” in data set [2] (5 h post treatment) and “marked loss of VM network” in data set [2] (24 h post treatment).

Consider `O=c1cc(-c2cccc(F)c2)[nH]c2cc3c(cc12)OCO3` [Compound A6], for which the results for the “loss of VM network compared to negative controls” value in data set [2] (5 h post treatment) and in data set [2] (24 h post treatment) were “mild loss of VM network” and “marked loss of VM network”, respectively.

For the molecule `O=c1cc(-c2cccc(Cl)c2)[nH]c2ccc3c(c12)OCO3` [Compound B1], the “loss of VM network compared to negative controls” value in data set [2] (5 h post treatment) is given as “mild loss of VM network”; in data set [2] (24 h post treatment) it was “marked loss of VM network”.

Turning to `COc1cccc(-c2cc(=O)c3c(O)c(OC)ccc3[nH]2)c1` [Compound B3], the entries for the “loss of VM network compared to negative controls” value in data set [2] (5 h post treatment) and in data set [2] (24 h post treatment) were “mild loss of VM network” and “marked loss of VM network”, respectively.

For `CN(C)c1ccc2[nH]c(-c3cc(O)cc(F)c3)cc(=O)c2c1` [Compound C4], the entries for the “loss of VM network compared to negative controls” value in data set [2] (5 h post treatment) and in data set [2] (24 h post treatment) were “mild loss of VM network” and “marked loss of VM network”, respectively.

`O=c1cc(-c2cc(O)cc(F)c2)[nH]c2ccc(N3CCCC3)cc12` [Compound C6]: the “loss of VM network compared to negative controls” value is on record as “mild loss of VM network” in data set [2] (5 h post treatment) and “marked loss of VM network” in data set [2] (24 h post treatment).

Consider `CCc1c2c(nc3ccc(OC(=O)N4CCC(N5CCCCC5)CC4)cc13)-c1cc3c(c(=O)n1C2)COC(=O)[C@]3(O)CC` [Irinotecan, reference compound], for which the “Average number of channels (CD31−/RBC+, VM) in the whole tumor section per group, Mean ± SEM” value in data set [3] turned out to be 1.1 ± 0.4.

On to `COc1ccc2[nH]c(-c3cccc(F)c3)cc(=O)c2c1O` [TRX-818M1, 2-(3-Fluorophenyl)-5-hydroxy-6-methoxyquinolin-4-one], for which the cell death entry in the data set with C8161 cells is reported as “induced cell death”. Further, the “loss of VM network compared to negative controls” value in data set [2] (5 h post treatment) is “mild loss of VM network”; in data set [2] (24 h post treatment) it was “marked loss of VM network”. In addition, the “concentration effective as vascular disrupting agent” value in data set [1] is given as roughly 0.3 nM. For the same molecule, the VM network formation entry in data set [1] is reported as “inhibited”.
